For the assay, the target named is T1, Neutrophil elastase (Homo sapiens, UniProt P08246).
T1 sequence (P08246 whole entry): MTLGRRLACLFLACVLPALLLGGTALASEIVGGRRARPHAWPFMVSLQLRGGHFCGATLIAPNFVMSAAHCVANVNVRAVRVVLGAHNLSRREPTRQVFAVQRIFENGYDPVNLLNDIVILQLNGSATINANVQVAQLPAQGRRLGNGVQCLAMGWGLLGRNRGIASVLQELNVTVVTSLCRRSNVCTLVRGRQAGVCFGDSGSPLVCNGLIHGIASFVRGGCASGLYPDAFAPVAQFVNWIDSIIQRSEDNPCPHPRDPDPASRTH
Nature of the assay: Human Neutrophil Elastase Assay: Compound buffer: 100 mM Tris, 500 mM NaCl, adjusted to pH 7.5; Assay buffer: 100 mM Tris, 500 mM NaCl, adjusted to pH 7.5, containing 0.01% BSA. Test compounds were prediluted in DMSO and subsequently in compound buffer (5% DMSO final). […] After inactivation of the enzyme, fluorescence intensities were measured at 380 nm excitation and 460 nm emission wavelengths.

Structures are written as SMILES.

Broadly, the IC50 is the midpoint of a concentration-inhibition curve. Lower therefore signals greater potency in that assay. For `Cc1c(-c2cccc(C(F)(F)F)c2)c(=O)c(C(=O)NCc2ccc(S(C)(=O)=O)s2)cn1C(C)C`, the IC50 was 28 nM. In other words, the double-digit nanomolar range.
Take `Cc1c(-c2cccc(C(F)F)c2)c(=O)c(C(=O)NCc2ccc(S(C)(=O)=O)cc2)cn1C1CCOC1` (configuration not stated): 27 nM corresponded to half-maximal inhibition (IC50).
